Laboratory results taken from US3956291A, “7-Thioacetamido cephalosporanic acid derivatives” (American Home Products Corporation, priority 1974, dated 1976).
≈ marks a conversion by molar mass, not a printed value. Where two headings read alike, the source gives them in different places.

Key:
Experiment in all cases: agar serial dilution test, minimum inhibitory concentration
Assay type in all cases: cell-based
Staphylococcus aureus = settings: for MIC: Staphylococcus aureus
Text: (§1) The compounds of this invention are useful for the treatment of bacterial infections amenable to treatment by cephalosporins. […] In accordance with the results obtained with the antibacterial compounds of this invention, their usefulness is established in the fields of comparative pharmacology and microbiology for the purpose of inhibiting the growth of undesirable bacterial colonies. […]

bacillus subtilis = settings: BA SU strain 6633; for MIC: Bacillus subtilis
Text: as §1

bordetella brochiseptica = settings: BO BR strain 4617
Text: as §1

escherichia coli = test system: escherichia coli
Text: as §1

klebsiella pneumoniae = test system: klebsiella pneumoniae
Text: as §1

neisseria catarrhalis = test system: neisseria catarrhalis
Text: as §1

proteus vulgaris = test system: proteus vulgaris
Text: as §1

salmonella paratyphi = settings: Salmonella enterica, read-out: Minimum Inhibitory Concentration
Text: as §1

[1] = read-out: Minimum Inhibitory Concentration
[2] = NE CA strain 8193, read-out: Minimum Inhibitory Concentration
[3] = PR VU strain 6896, read-out: Minimum Inhibitory Concentration
[4] = KL PN strain 10031, read-out: Minimum Inhibitory Concentration

SMILES	MIC (Staphylococcus aureus; ST AU strain 53-180) [µg/mL]	MIC (Staphylococcus aureus; ST AU strain 6538P) [µg/mL]	MIC (Staphylococcus aureus; ST AU strain CHP) [µg/mL]	MIC (Staphylococcus aureus; ST AU strain Smith) [µg/mL]	MIC (bacillus subtilis) [µg/mL]	MIC (bordetella brochiseptica) [µg/mL]	MIC (escherichia coli; ES CO strain 920) [µg/mL]	MIC (escherichia coli; ES CO strain 9637) [µg/mL]	MIC (klebsiella pneumoniae; [1]) [µg/mL]	MIC (neisseria catarrhalis; [2]) [µg/mL]	MIC (proteus vulgaris; [3]) [µg/mL]	MIC (salmonella paratyphi) [µg/mL]	MIC (klebsiella pneumoniae; [4]) [µg/mL]	MIC (Staphylococcus aureus; ST AU (ditto mark) strain 9637 (so in the source)) [µg/mL]	Minimum Inhibitory Concentration (Staphylococcus aureus; ST AU strain 6538P) [micrograms per milliliter]	Minimum Inhibitory Concentration (Staphylococcus aureus; ST AU strain Smith) [micrograms per milliliter]	Minimum Inhibitory Concentration (bacillus subtilis) [micrograms per milliliter]	MIC (neisseria catarrhalis; [1]) [µg/mL]	MIC (proteus vulgaris; [1]) [µg/mL]
CCOC(=O)CSC(=NC#N)SCC(=O)N[C@@H]1C(=O)N2C(C(=O)O)=C(COC(C)=O)CS[C@H]12 [Example 12, 7-[2-[(cyanoimino)(2-ethoxy-2-oxoethylthio)methylthio]acetamido]cephalosporanic acid]	1.95 (≈ 3.77 µM)	0.976 (≈ 1.89 µM)	3.9 (≈ 7.55 µM)	0.488 (≈ 0.945 µM)	0.122 (≈ 0.236 µM)	250 (≈ 484 µM)	250 (≈ 484 µM)	250 (≈ 484 µM)	31.3 (≈ 60.6 µM)	62.5 (≈ 121 µM)	62.5 (≈ 121 µM)	31.3 (≈ 60.6 µM)	–	–	–	–	–	–	–
CC(=O)OCC1=C(C(=O)O)N2C(=O)[C@@H](NC(=O)CSC(=NC#N)SCc3ccc(Cl)cc3)[C@H]2SC1 [Example 18, 7-[2-[(4-Chlorophenylmethylthio) (cyanoimino)methylthio]acetamido]cephalosporanic acid]	3.9 (≈ 7.03 µM)	1.95 (≈ 3.51 µM)	7.81 (≈ 14.1 µM)	1.95 (≈ 3.51 µM)	0.488 (≈ 0.879 µM)	125 (≈ 225 µM)	250 (≈ 450 µM)	250 (≈ 450 µM)	–	250 (≈ 450 µM)	62.5 (≈ 113 µM)	31.3 (≈ 56.4 µM)	125 (≈ 225 µM)	–	–	–	–	–	–
CC(=O)OCC1=C(C(=O)O)N2C(=O)[C@@H](NC(=O)CSC(=NC#N)SCc3cccc(Cl)c3)[C@H]2SC1 [Example 16, 7-[2-[(3-chlorophenylmethylthio) (cyanoimino)methylthio]acetamido]cephalosporanic acid]	3.9 (≈ 7.03 µM)	0.976 (≈ 1.76 µM)	1.95 (≈ 3.51 µM)	1.95 (≈ 3.51 µM)	0.122 (≈ 0.22 µM)	250 (≈ 450 µM)	250 (≈ 450 µM)	250 (≈ 450 µM)	–	125 (≈ 225 µM)	125 (≈ 225 µM)	31.3 (≈ 56.4 µM)	125 (≈ 225 µM)	–	–	–	–	–	–
COC(=O)CSC(SCC(=O)N[C@@H]1C(=O)N2C(C(=O)O)=C(COC(C)=O)CS[C@H]12)=C(C#N)C(N)=O [Example 3, 7-(2-[2-Carbamoyl-1-(methoxycarbonylmethylthio)-2-cyanoethenylthio]acetamido) cephalosporanic acid]	1.95 (≈ 3.58 µM)	0.488 (≈ 0.896 µM)	3.9 (≈ 7.16 µM)	0.488 (≈ 0.896 µM)	0.122 (≈ 0.224 µM)	–	–	62.5 (≈ 115 µM)	–	7.81 (≈ 14.3 µM)	62.5 (≈ 115 µM)	31.3 (≈ 57.5 µM)	125 (≈ 230 µM)	–	–	–	–	–	–
C#CCSC(=NC#N)SCC(=O)N[C@@H]1C(=O)N2C(C(=O)O)=C(COC(C)=O)CS[C@H]12 [Example 17, 7-[2-[(cyanoimino) (2-propynylthio)methylthio]acetamido]cephalosporanic acid]	3.9 (≈ 8.32 µM)	0.488 (≈ 1.04 µM)	3.9 (≈ 8.32 µM)	0.488 (≈ 1.04 µM)	0.122 (≈ 0.26 µM)	–	62.5 (≈ 133 µM)	31.3 (≈ 66.8 µM)	7.81 (≈ 16.7 µM)	125 (≈ 267 µM)	62.5 (≈ 133 µM)	7.81 (≈ 16.7 µM)	–	–	–	–	–	–	–
CSC(=NC#N)SCC(=O)N[C@@H]1C(=O)N2C(C(=O)O)=C(COC(C)=O)CS[C@H]12 [Example 5]	3.9 (≈ 8.77 µM)	1.95 (≈ 4.39 µM)	7.81 (≈ 17.6 µM)	0.976 (≈ 2.2 µM)	0.976 (≈ 2.2 µM)	125 (≈ 281 µM)	250 (≈ 562 µM)	–	–	250 (≈ 562 µM)	62.5 (≈ 141 µM)	31.3 (≈ 70.4 µM)	125 (≈ 281 µM)	125 (≈ 281 µM)	–	–	–	–	–
CC(=O)OCC1=C(C(=O)O)N2C(=O)C(NC(=O)CSC(SCC#N)=C(C#N)S(C)(=O)=O)C2SC1 (centres unmarked) [Example 11, 7-[2-(2-Cyano-1-cyanomethylthio-2-methylsulfonylethenylthio)acetamido]cephalosporanic acid]	–	–	–	–	–	–	–	–	–	–	–	–	–	–	250	250	15.6	–	–
CC(=O)OCC1=C(C(=O)O)N2C(=O)[C@@H](NC(=O)CSC(=NC#N)SCc3ccccc3)[C@H]2SC1 [Example 10, 7-[2-[ (cyanoimino) (phenylmethylthio)methylthio]acetamido]cephalosporanic acid]	1.95 (≈ 3.75 µM)	0.976 (≈ 1.87 µM)	3.9 (≈ 7.49 µM)	0.976 (≈ 1.87 µM)	0.122 (≈ 0.234 µM)	15.6 (≈ 30 µM)	62.5 (≈ 120 µM)	15.6 (≈ 30 µM)	–	62.5 (≈ 120 µM)	15.6 (≈ 30 µM)	3.9 (≈ 7.49 µM)	15.6 (≈ 30 µM)	–	–	–	–	–	–
CCOC(=O)CSC(SCC(=O)N[C@@H]1C(=O)N2C(C(=O)O)=C(COC(C)=O)CS[C@H]12)=C(C#N)C#N [Example 1, 7-(2[2,2-Dicyano-1-(ethoxycarbonylmethylthio)ethenylthio]acetamido)cephalosporanic acid]	3.9 (≈ 7.21 µM)	0.976 (≈ 1.81 µM)	7.81 (≈ 14.4 µM)	0.976 (≈ 1.81 µM)	0.244 (≈ 0.451 µM)	250 (≈ 462 µM)	–	250 (≈ 462 µM)	–	–	–	125 (≈ 231 µM)	250 (≈ 462 µM)	–	–	–	–	125 (≈ 231 µM)	125 (≈ 231 µM)
CC(=O)OCC1=C(C(=O)O)N2C(=O)[C@@H](NC(=O)CSC(=C[N+](=O)[O-])SCc3ccccc3)[C@H]2SC1 [Example 9, 7-[2-(1-Benzylthio-2-nitroethenylthio)acetamido]cephalosporanic acid]	0.488 (≈ 0.904 µM)	0.122 (≈ 0.226 µM)	0.488 (≈ 0.904 µM)	0.122 (≈ 0.226 µM)	0.031 (≈ 0.0574 µM)	250 (≈ 463 µM)	–	250 (≈ 463 µM)	–	7.81 (≈ 14.5 µM)	125 (≈ 232 µM)	62.5 (≈ 116 µM)	125 (≈ 232 µM)	–	–	–	–	–	–
C=CCSC(=NC#N)SCC(=O)N[C@@H]1C(=O)N2C(C(=O)O)=C(COC(C)=O)CS[C@H]12 [Example 19, 7-[2-[(cyanoimino)(2-propenylthio)methylthio]acetamido]cephalosporanic acid]	3.9 (≈ 8.29 µM)	1.95 (≈ 4.14 µM)	7.81 (≈ 16.6 µM)	1.95 (≈ 4.14 µM)	0.488 (≈ 1.04 µM)	125 (≈ 266 µM)	250 (≈ 531 µM)	250 (≈ 531 µM)	–	250 (≈ 531 µM)	–	31.3 (≈ 66.5 µM)	125 (≈ 266 µM)	–	–	–	–	–	31.3 (≈ 66.5 µM)
CC(=O)OCC1=C(C(=O)O)N2C(=O)[C@@H](NC(=O)CSC(=NC#N)SCc3ccc([N+](=O)[O-])cc3)[C@H]2SC1 [Example 13, 7-[2-[(cyanoimino)(4-nitrophenylmethylthio)methylthio]acetamido]cephalosporanic acid]	3.9 (≈ 6.9 µM)	1.95 (≈ 3.45 µM)	3.9 (≈ 6.9 µM)	1.95 (≈ 3.45 µM)	0.488 (≈ 0.863 µM)	125 (≈ 221 µM)	–	250 (≈ 442 µM)	–	–	–	62.5 (≈ 110 µM)	250 (≈ 442 µM)	–	–	–	–	62.5 (≈ 110 µM)	62.5 (≈ 110 µM)
CC(=O)OCC1=C(C(=O)O)N2C(=O)[C@@H](NC(=O)CSC(=NC#N)SCC(=O)O)[C@H]2SC1 [Example 15, 7-[2-[(cyanoimino)(2-hydroxy-2-oxoethylthio)methylthio]acetamido]cephalosporanic acid]	–	15.6 (≈ 31.9 µM)	62.5 (≈ 128 µM)	7.81 (≈ 16 µM)	1.95 (≈ 3.99 µM)	–	–	–	–	–	–	125 (≈ 256 µM)	250 (≈ 512 µM)	–	–	–	–	–	125 (≈ 256 µM)
CCOC(=O)CSC(SCC(=O)N[C@@H]1C(=O)N2C(C(=O)O)=C(COC(C)=O)CS[C@H]12)=C(C#N)C(N)=O [Example 4]	1.95 (≈ 3.49 µM)	0.488 (≈ 0.874 µM)	3.9 (≈ 6.98 µM)	0.488 (≈ 0.874 µM)	0.061 (≈ 0.109 µM)	–	–	250 (≈ 448 µM)	–	3.9 (≈ 6.98 µM)	125 (≈ 224 µM)	62.5 (≈ 112 µM)	125 (≈ 224 µM)	–	–	–	–	–	–
